This note sets out measurements from ChEMBL document CHEMBL6153147 (J Med Chem, 2025).

The target in assay [1] is Serine/threonine-protein kinase PLK3 (Homo sapiens, UniProt Q9H4B4). Kind of assay: Inhibition of human PLK3 using ATF2 as substrate incubated for 40 mins in presence of [gamma-33P]ATP/Mg acetate by scintillation counting analysis.
The nature of assay [2]: Selectivity ratio of IC50 for inhibition of human PLK3 using ATF2 as substrate to IC50 for inhibition of human PLK1 using ATF2 as substrate.
A short description of assay [3]: Selectivity ratio of IC50 for inhibition of human PLK2 using ATF2 as substrate to IC50 for inhibition of human PLK1 using ATF2 as substrate.
The target in assay [4] is Serine/threonine-protein kinase PLK2 (Homo sapiens, UniProt Q9NYY3). Kind of assay: Inhibition of human PLK2 using ATF2 as substrate incubated for 40 mins in presence of [gamma-33P]ATP/Mg acetate by scintillation counting analysis.
Assay [5] concerns the target Serine/threonine-protein kinase PLK1 (Homo sapiens, UniProt P53350). The experiment in a line: Inhibition of human PLK1 using ATF2 as substrate incubated for 40 mins in presence of [gamma-33P]ATP/Mg acetate by scintillation counting analysis.

The structures appear in SMILES notation.

Chain of Serine/threonine-protein kinase PLK1 (P53350 whole entry): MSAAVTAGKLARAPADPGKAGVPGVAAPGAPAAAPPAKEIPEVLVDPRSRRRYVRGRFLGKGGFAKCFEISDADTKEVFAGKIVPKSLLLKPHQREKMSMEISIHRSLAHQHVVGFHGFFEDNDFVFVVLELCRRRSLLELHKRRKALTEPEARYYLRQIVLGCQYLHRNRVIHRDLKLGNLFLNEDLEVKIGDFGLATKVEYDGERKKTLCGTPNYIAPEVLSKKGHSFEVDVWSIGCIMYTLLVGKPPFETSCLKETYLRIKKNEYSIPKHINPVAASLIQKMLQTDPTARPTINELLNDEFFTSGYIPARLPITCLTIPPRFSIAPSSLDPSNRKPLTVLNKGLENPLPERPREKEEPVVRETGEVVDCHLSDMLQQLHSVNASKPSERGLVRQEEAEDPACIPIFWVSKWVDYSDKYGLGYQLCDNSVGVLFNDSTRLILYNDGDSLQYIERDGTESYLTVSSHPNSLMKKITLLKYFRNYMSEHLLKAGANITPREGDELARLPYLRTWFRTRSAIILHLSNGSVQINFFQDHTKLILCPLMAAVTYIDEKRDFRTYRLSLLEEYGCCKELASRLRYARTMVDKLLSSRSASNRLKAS
Chain of Serine/threonine-protein kinase PLK3 (Q9H4B4 whole entry): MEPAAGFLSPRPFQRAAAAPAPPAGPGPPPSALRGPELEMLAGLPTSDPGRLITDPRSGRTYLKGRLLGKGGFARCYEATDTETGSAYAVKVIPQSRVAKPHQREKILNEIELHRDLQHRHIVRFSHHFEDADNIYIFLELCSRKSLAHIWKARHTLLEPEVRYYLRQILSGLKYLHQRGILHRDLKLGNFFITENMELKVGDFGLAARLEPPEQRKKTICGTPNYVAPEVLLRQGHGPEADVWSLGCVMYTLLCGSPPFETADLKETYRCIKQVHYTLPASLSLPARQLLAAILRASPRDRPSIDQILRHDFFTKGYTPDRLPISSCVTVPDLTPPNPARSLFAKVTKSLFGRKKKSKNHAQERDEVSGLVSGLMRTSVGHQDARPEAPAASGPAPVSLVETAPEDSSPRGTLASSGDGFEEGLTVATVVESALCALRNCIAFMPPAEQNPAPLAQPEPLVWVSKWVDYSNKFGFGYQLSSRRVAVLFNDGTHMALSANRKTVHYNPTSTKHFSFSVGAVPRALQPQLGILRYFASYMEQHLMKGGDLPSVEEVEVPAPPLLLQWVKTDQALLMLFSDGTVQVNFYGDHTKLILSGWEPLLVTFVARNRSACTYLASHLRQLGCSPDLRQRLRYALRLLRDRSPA
Chain of Serine/threonine-protein kinase PLK2 (Q9NYY3 whole entry): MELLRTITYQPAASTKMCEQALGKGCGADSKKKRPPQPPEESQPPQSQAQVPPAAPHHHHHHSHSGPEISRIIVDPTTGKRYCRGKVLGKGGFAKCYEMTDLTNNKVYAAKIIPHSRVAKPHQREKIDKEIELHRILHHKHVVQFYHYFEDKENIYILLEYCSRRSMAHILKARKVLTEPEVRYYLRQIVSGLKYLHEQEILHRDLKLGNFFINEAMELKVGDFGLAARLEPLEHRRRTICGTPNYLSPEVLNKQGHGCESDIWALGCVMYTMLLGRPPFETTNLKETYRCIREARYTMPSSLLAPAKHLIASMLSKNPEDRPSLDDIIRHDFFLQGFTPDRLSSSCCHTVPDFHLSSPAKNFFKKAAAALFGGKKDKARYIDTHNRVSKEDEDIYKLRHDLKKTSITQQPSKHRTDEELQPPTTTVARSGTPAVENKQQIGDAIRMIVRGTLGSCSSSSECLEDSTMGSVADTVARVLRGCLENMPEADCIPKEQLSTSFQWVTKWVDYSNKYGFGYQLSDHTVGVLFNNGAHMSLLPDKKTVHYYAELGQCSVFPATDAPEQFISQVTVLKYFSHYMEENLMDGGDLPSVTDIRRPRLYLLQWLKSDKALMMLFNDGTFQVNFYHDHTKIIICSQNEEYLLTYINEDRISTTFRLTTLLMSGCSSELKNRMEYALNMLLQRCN

For `CC[C@@H]1C(=O)N(C)c2cnc(Nc3cc(N4CCN(CC)CC4)ccc3OCCO)nc2N1C(C)C`, the figures for the IC50 in assay [1], in assay [4] and in assay [5] were above 10000 nM, above 10000 nM and 74 nM, respectively. Further, the ratio in assay [2] and in assay [3] was above 135 in each case.
As for `CC[C@@H]1C(=O)N(C)c2cnc(Nc3cc(N4CCN(C)CC4)ccc3OCCCO)nc2N1C(C)C`, the half-inhibitory concentration (IC50) (as a rule, the concentration at which inhibition is half-maximal) was above 10000 nM in assay [1], above 10000 nM in assay [4] and 22 nM in assay [5]. Moreover, the ratio in assay [2] and in assay [3] was above 300 each time.
Turning to `CC[C@@H]1C(=O)N(C)c2cnc(Nc3cc(N4CCC(N)CC4)ccc3OC)nc2N1C1CCCC1`, the IC50 turned out to be 926 nM in assay [1], 505 nM in assay [4] and 29 nM in assay [5]. Also, the ratio is 32 in assay [2] and 17 in assay [3].
The matching figures for `CC[C@@H]1C(=O)N(C)c2cnc(Nc3cc(N4CCN(CC)CC4)ccc3OCCCO)nc2N1C1CCCC1`: 4910 nM, above 10000 nM, 26 nM, 175 and above 357.
In the case of `CC[C@@H]1C(=O)N(C)c2cnc(Nc3cc(N4CCN(C)CC4)ccc3OC)nc2N1C1CCCC1`, the IC50 worked out at 635 nM in assay [1], 255 nM in assay [4] and 21 nM in assay [5]. The values for the ratio in assay [2] and in assay [3] were 30 and 12, respectively.
The matching figures for `CC[C@@H]1C(=O)N(C)c2cnc(Nc3cc(N4CCN(C)CC4)cc(Cl)c3OC)nc2N1C(C)C`: 3990 nM, 5560 nM, 18 nM, 221 and 314.
In the same order, the values of `CC[C@@H]1C(=O)N(C)c2cnc(Nc3cc(N4CCN(C)CC4)cc(F)c3OCCO)nc2N1C(C)C` are above 10000 nM, above 10000 nM, 30 nM, above 330 and above 330.
The matching figures for `CC[C@@H]1C(=O)N(C)c2cnc(Nc3cc(N4CCN(C)CC4)ccc3OCCO)nc2N1C(C)C`: above 10000 nM, above 10000 nM, 33 nM, above 303 and above 303.
Take `CC[C@@H]1C(=O)N(C)c2cnc(Nc3cc(N4CCN(C)CC4)cc(Cl)c3OCCCO)nc2N1C(C)C`: the IC50 in assay [1] was above 10000 nM; in assay [4], above 10000 nM; in assay [5] it was 20 nM. Moreover, the ratio in assay [2] and in assay [3] was above 333 each time.
For `CC[C@@H]1C(=O)N(C)c2cnc(Nc3cc(N4CCN(C)CC4)ccc3OCCO)nc2N1C1CCCC1`, the IC50 in assay [1] is 5670 nM; in assay [4], above 10100 nM; in assay [5], 27 nM. In addition, the ratio in assay [2] is 245; in assay [3], above 450.
The matching figures for `CC[C@@H]1C(=O)N(C)c2cnc(Nc3cc(N4CCN(C(=O)OC(C)(C)C)CC4)ccc3OCCCO)nc2N1C1CCCC1`: above 10000 nM, above 10000 nM, 195 nM, above 51 and above 51.
In the same order, the values of `CC[C@@H]1C(=O)N(C)c2cnc(Nc3cc(N4CCN(C)CC4)cc(Cl)c3OC)nc2N1C1CCCC1` are 778 nM, 325 nM, 12 nM, 64 and 27.
On to `CC[C@@H]1C(=O)N(C)c2cnc(Nc3cc(N4CCN(C)CC4)cc(F)c3OC)nc2N1C(C)C`, for which the IC50 in assay [1] is 5160 nM; in assay [4] it was 6600 nM; in assay [5] it was 16 nM. For the same compound, the ratio was 322 in assay [2] and 412 in assay [3].
With `CC[C@@H]1C(=O)N(C)c2cnc(Nc3cc(N4CCNCC4)ccc3OCCCO)nc2N1C(C)C`, the IC50 in assay [1] is above 10000 nM; in assay [4], above 10000 nM; in assay [5], 40 nM. Moreover, the ratio in assay [2] and in assay [3] was above 250 throughout.
Regarding `CC[C@@H]1C(=O)N(C)c2cnc(Nc3cc(N4CCN(C)CC4)cc(Cl)c3OCCO)nc2N1C1CCCC1`, the IC50 in assay [1] came out at 5760 nM; in assay [4], 7850 nM; in assay [5], 11 nM. Also, the ratio was 576 in assay [2] and 764 in assay [3].
For the compound `CC[C@@H]1C(=O)N(C)c2cnc(Nc3cc(N4CCC(N)CC4)ccc3OCCO)nc2N1C1CCCC1`, the IC50 in assay [1] was above 10000 nM; in assay [4], above 10000 nM; in assay [5], 34 nM. The ratio in assay [2] and in assay [3] was above 292 throughout.
As to `CC[C@@H]1C(=O)N(C)c2cnc(Nc3cc(N4CCN(C)CC4)cc(Cl)c3OCCO)nc2N1C1CCNC1` (some centres not stated), in assay [5], the IC50 is 9250 nM.
For the compound `CC[C@@H]1C(=O)N(C)c2cnc(Nc3cc(N4CCC(NC(=O)OC(C)(C)C)CC4)ccc3OCCCO)nc2N1C1CCCC1`, the IC50 was above 10000 nM in assay [1], above 10000 nM in assay [4] and 97 nM in assay [5]. For the same compound, the ratio in assay [2] and in assay [3] was above 104 throughout.
Take `CC[C@@H]1C(=O)N(C)c2cnc(Nc3cc(N4CCN(C)CC4)cc(F)c3OC)nc2N1C1CCCC1`: the IC50 in assay [1] amounted to 1180 nM; in assay [4], 459 nM; in assay [5], 11 nM. In addition, the ratio in assay [2] worked out at 108; in assay [3] it was 42.
In the same order, the values of `CC[C@@H]1C(=O)N(C)c2cnc(Nc3cc(N4CCN(CC)CC4)cc(F)c3OCCO)nc2N1C1CCCC1` are above 10000 nM, above 10000 nM, 20 nM, above 500 and above 500.
In the same order, the values of `CC[C@@H]1C(=O)N(C)c2cnc(Nc3cc(N4CCN(C)CC4)cc(Cl)c3OCCO)nc2N1C(C)C` are above 10000 nM, above 10000 nM, 48 nM, above 208 and above 208.
Consider `CC[C@@H]1C(=O)N(C)c2cnc(Nc3cc(N4CCN(C)CC4)cc(F)c3OCCCO)nc2N1C1CCNC1` (some centres not stated), for which, in assay [5], the IC50 was determined as 7460 nM.
As for `CC[C@@H]1C(=O)N(C)c2cnc(Nc3cc(N4CCNCC4)ccc3OCCCO)nc2N1C1CCCC1`, the half-maximal inhibitory concentration (IC50) is 5570 nM in assay [1], above 10000 nM in assay [4] and 23 nM in assay [5]. For the same compound, the values for the ratio in assay [2] and in assay [3] were 225 and above 435, respectively.
In the same order, the values of `CC[C@@H]1C(=O)N(C)c2cnc(Nc3cc(N4CCN(C)CC4)cc(F)c3OC[C@H](C)O)nc2N1C(C)C` are above 10000 nM, above 10000 nM, 141 nM, above 71 and above 71.
On to `CC[C@@H]1C(=O)N(C)c2cnc(Nc3cc(N4CCN(CC)CC4)ccc3OCCO)nc2N1C1CCCC1`, for which the IC50 in assay [1] is 6980 nM; in assay [4] it was above 10000 nM; in assay [5], 27 nM. For the same compound, the values for the ratio in assay [2] and in assay [3] were 258 and above 370, respectively.
For the compound `CC[C@@H]1C(=O)N(C)c2cnc(Nc3cc(N4CCNCC4)ccc3OCCO)nc2N1C1CCCC1`, the IC50 in assay [1] was 5830 nM; in assay [4] it was above 10100 nM; in assay [5], 39 nM. Besides, the values for the ratio in assay [2] and in assay [3] were 150 and above 256, respectively.
In the same order, the values of `CC[C@@H]1C(=O)N(C)c2cnc(Nc3cc(N4CCC(NC(=O)OC(C)(C)C)CC4)ccc3OC)nc2N1C1CCCC1` are 6450 nM, 3370 nM, 152 nM, 43 and 22.
The matching figures for `CC[C@@H]1C(=O)N(C)c2cnc(Nc3cc(N4CCNCC4)ccc3OCCO)nc2N1C(C)C`: above 10000 nM, above 10000 nM, 101 nM, above 99 and above 99.
`CC[C@@H]1C(=O)N(C)c2cnc(Nc3cc(N4CCC(N)CC4)ccc3OCCCO)nc2N1C1CCCC1`: the IC50 is 6010 nM in assay [1], above 10000 nM in assay [4] and 31 nM in assay [5]. Also, the ratio in assay [2] is 192; in assay [3] it was above 319.
For `CC[C@@H]1C(=O)N(C)c2cnc(Nc3cc(N4CCC(NC(=O)OC(C)(C)C)CC4)ccc3OCCO)nc2N1C1CCCC1`, the IC50 in assay [1] was above 10000 nM; in assay [4] it was above 10000 nM; in assay [5], 149 nM. Also, the ratio in assay [2] and in assay [3] was above 67.1 in each case.
Turning to `CC[C@@H]1C(=O)N(C)c2cnc(Nc3cc(N4CCN(C(=O)OC(C)(C)C)CC4)ccc3OCCO)nc2N1C1CCCC1`, the IC50 in assay [1] is above 10000 nM; in assay [4], above 10000 nM; in assay [5] it was 138 nM. In addition, the ratio in assay [2] and in assay [3] was above 73 in each case.
`CC[C@@H]1C(=O)N(C)c2cnc(Nc3cc(N(C)CCN(C)C)cc(F)c3OCCCO)nc2N1C1CCCC1`: the values for the IC50 in assay [1], in assay [4] and in assay [5] were 1460 nM, 5870 nM and 20 nM, respectively. Moreover, the ratio in assay [2] amounted to 72; in assay [3], 292.
Take `CC[C@@H]1C(=O)N(C)c2cnc(Nc3cc(N(C)CCN(C)C)cc(F)c3OC)nc2N1C1CCCC1`: the half-inhibitory concentration (IC50) in assay [1] was found to be 625 nM; in assay [4] it was 422 nM; in assay [5] it was 13 nM. Besides, the results for the ratio in assay [2] and in assay [3] were 48 and 32, respectively.
As to `CC[C@@H]1C(=O)N(C)c2cnc(Nc3cc(N4CCN(CC)CC4)cc(F)c3OC)nc2N1C1CCCC1`, the half-inhibitory concentration (IC50) in assay [1] was determined as 1290 nM; in assay [4], 610 nM; in assay [5], 12 nM. For the same compound, the ratio in assay [2] amounted to 107; in assay [3], 51.
